Reference: patent publication US20110098219A1, “System for Curing Hepatic Cancer with Leptin” (KAOHSIUNG MEDICAL UNIVERSITY, priority 2009, published 2011)

Tested on: liver cancer cells (hepatocellular carcinoma cell line)
Test: XTT assay, growth of liver cancer cells
Assay type: cell-based
Method: Please refer to FIG. 2, which is a view showing leptin's effect on growth of liver cancer cells. As shown in the figure, for acquiring effect of leptin on liver cancer cells, the preferred embodiment uses leptin having different doses, where the high-dose leptin has 100 nano-grams (ng) and the low-dose leptin has 10 ng. The 10 ng leptin is conformed to the physiological concentration of normal human body for observing effect of leptin on the cells. In the other hand, the 100 ng leptin is used to show whether a higher levels of leptin obtains a higher effect on the cells.
Please refer to FIG. 3, which is a view showing MPA's effect on growth of liver cancer cells. As shown in the figure, the preferred embodiment applies MPA having different doses to liver cancer cells.
Please refer to FIG. 4, which is a view showing effect of MPA+leptin on growth of liver cancer cells. As shown in the figure, the preferred embodiment applies MPA combined with leptin to liver cancer cells, where MPA has different doses and leptin has different doses.
Please refer to FIG. 9, which is a view showing reduced effect of MPA+leptin by suppressing leptin receptor expression. As shown in the figure, a 20 nano-moles (nM) of leptin receptor, siRNA, is transferred to cells to be cultured a day and is cultured in a serum-free medium for the next day. Then, the cells are processed with MPA+leptin for 24 hours to be analyzed through XTT assay. […] Thus, it is confirmed that leptin enhances MPA's suppression on the cells through the leptin receptor.
Please refer to FIG. 10A and FIG. 10B, which are views showing apoptosis of cells on increasing expression of leptin receptor and expression of progesterone receptor respectively. As shown in the figures, the preferred embodiment makes ob-Rb plasmid transfected to cells to be cultured a day and is cultured in a serum-free medium for the next day. Then, the cells are processed with MPA+leptin for 24 hours to be analyzed through XTT assay. […] Besides, the long-form Ob-R enhances expression of the progesterone receptor. Again, the preferred embodiment makes PgR plasmid transfected to cells to be cultured a day and is cultured in a serum-free medium for the next day. Then, the cells are processed with MPA+leptin for 24 hours to be analyzed through XTT assay.
Please refer to FIG. 15A to FIG. 16B, which are views showing cells containing very much leptin within; suppressed growth of the cells by using MPA; and STAT3- and MAPK-signal paths of the cells after MPA is applied. As shown in the figures, while leptin is added from outside in state 13 to suppress liver cancer cells with MPA+leptin, the preferred embodiment here transfers expression plasmid of leptin (pcLeptin) to liver cancer cells to be cultured for a day; and a serum-free medium is used for the next day. Then, after the cells are processed with 10^−4M MPA for 24 hours, cell growth is analyzed through XTT assay. In FIG. 15A, leptin gene is transferred to cells for a short time for obtaining very much leptin within the cells by themselves. After applying MPA to the cells for 24 hours, it is confirmed that MPA's suppression on liver cancer cells is enhanced by a lot of leptin self-generated within the cells. Moreover, after obtaining a lot of leptin, medium is collected for immunoprecipitation and further western blotting. […] Then, after the cells are processed with 10^−4 M MPA for 24 hours, JAK/STAT-related proteins are analyzed through western blotting.

CC(=O)O[C@]1(C(C)=O)CC[C@H]2[C@@H]3C[C@H](C)C4=CC(=O)CC[C@]4(C)[C@H]3CC[C@@]21C [MPA, medroxyprogesterone acetate]
MPA's suppression on liver cancer cells (cells transfected with pcLeptin, 10^-4 M MPA, 24 hours): enhanced | suppressive effect on liver cancer cells (high-dose MPA 10^-4 M, 24 hours): obvious suppressive effect | suppressive effect on liver cancer cells (high-dose MPA 10^-4 M, 48 hours): the effect is enhanced | suppressive effect on liver cancer cells (low-dose MPA 10^-6 M, 24 hours or 48 hours): does not have obvious suppressive effect
